Data taken from the NIST ThermoML archive (doi:10.1016/j.jct.2009.11.004).

What was measured:
[1] = 101.33 kPa, Liquid; for viscosity: Concentric cylinders viscometry; for mass density: Vibrating tube method
[2] = refractive index (Na D-line) (dimensionless); details: 101.33 kPa, Liquid, Standard Abbe refractometry

CCCCCC[n+]1ccn(C)c1.O=S(=O)([N-]S(=O)(=O)C(F)(F)F)C(F)(F)F
298.15 K
Details | mass density [kg/m3] | refractive index | viscosity [mPa·s]
[1] | 1370.8 | – | 68.54
[2] | – | 1.4318 | –

CCCC[n+]1ccccc1.O=S(=O)([N-]S(=O)(=O)C(F)(F)F)C(F)(F)F [1-butylpyridinium bis[(trifluoromethyl)sulfonyl]imide]
Details | mass density, [1] [kg/m3] | refractive index, [2] | viscosity, [1] [mPa·s]
293.15 K | 1452.5 | 1.44537 | 76.16
298.15 K | 1447.6 | 1.44379 | 60.41
303.15 K | 1442.9 | 1.44211 | 48.55
308.15 K | 1438.3 | 1.44057 | 39.65
313.15 K | 1433.6 | 1.43911 | 32.83
318.15 K | 1429 | 1.43769 | 27.56
323.15 K | 1424.3 | 1.43631 | 23.4
328.15 K | 1419.7 | 1.43496 | 20.08
333.15 K | 1415.1 | 1.43359 | 17.4
338.15 K | 1410.5 | – | 15.2
343.15 K | 1406 | – | 13.39
348.15 K | 1401.5 | – | 11.87
353.15 K | 1397 | – | 10.59

CCCCCCCCCC[n+]1ccccc1.O=S(=O)([N-]S(=O)(=O)C(F)(F)F)C(F)(F)F [1-decylpyridinium bis(trifluoromethylsulfonyl)imide]
Details | mass density, [1] [kg/m3] | refractive index, [2] | viscosity, [1] [mPa·s]
293.15 K | 1287.8 | 1.45007 | 201.44
298.15 K | 1283.5 | 1.44859 | 151.93
303.15 K | 1279.2 | 1.44703 | 116.39
308.15 K | 1275.1 | 1.44546 | 90.82
313.15 K | 1270.9 | 1.44391 | 72.07
318.15 K | 1266.8 | 1.44239 | 58.06
323.15 K | 1262.6 | 1.44091 | 47.46
328.15 K | 1258.5 | 1.43943 | 39.29
333.15 K | 1254.3 | 1.43796 | 32.91
338.15 K | 1250.2 | – | 27.86
343.15 K | 1246.1 | – | 23.81
348.15 K | 1242 | – | 20.54
353.15 K | 1237.9 | – | 17.85

CCCCCCCCCCCC[n+]1ccccc1.O=S(=O)([N-]S(=O)(=O)C(F)(F)F)C(F)(F)F [1-dodecylpyridinium bis(trifluoromethylsulfonyl)imide]
Details | mass density, [1] [kg/m3] | refractive index, [2] | viscosity, [1] [mPa·s]
293.15 K | 1253.1 | 1.45131 | 269.72
298.15 K | 1248.8 | 1.44969 | 200.45
303.15 K | 1244.6 | 1.44818 | 151.42
308.15 K | 1240.5 | 1.44668 | 116.63
313.15 K | 1236.4 | 1.44524 | 91.45
318.15 K | 1232.3 | 1.44379 | 72.83
323.15 K | 1228.2 | 1.44235 | 58.88
328.15 K | 1224.1 | 1.4409 | 48.25
333.15 K | 1220.1 | 1.43946 | 40.02
338.15 K | 1216 | – | 33.59
343.15 K | 1212 | – | 28.47
348.15 K | 1208 | – | 24.36
353.15 K | 1204 | – | 21.03

CCCCCCCC[n+]1ccccc1.O=S(=O)([N-]S(=O)(=O)C(F)(F)F)C(F)(F)F [1-octylpyridinium bis((trifluoromethyl)sulfonyl)amide]
Details | mass density, [1] [kg/m3] | refractive index, [2] | viscosity, [1] [mPa·s]
293.15 K | 1331.3 | 1.4487 | 149.53
298.15 K | 1326.8 | 1.44723 | 114.34
303.15 K | 1322.5 | 1.44568 | 88.74
308.15 K | 1318.2 | 1.44413 | 70.13
313.15 K | 1313.9 | 1.44262 | 56.33
318.15 K | 1309.6 | 1.44115 | 45.9
323.15 K | 1305.3 | 1.43972 | 37.91
328.15 K | 1301.1 | 1.43827 | 31.7
333.15 K | 1296.8 | 1.43681 | 26.8
338.15 K | 1292.6 | – | 22.89
343.15 K | 1288.3 | – | 19.73
348.15 K | 1284.1 | – | 17.15
353.15 K | 1279.9 | – | 15.02
